According to patent US11407831B2, “Pharmaceutical composition administered in combination with substituted dihydropyrrolopyrazole compound and immunotherapeutic agent” (UBE INDUSTRIES, LTD., priority 2017, dated 2022):

Experiments:
[1] = tested on: Mouse melanoma cells (B16F10); assay: Mouse Melanoma (B16F10) Cell Growth Inhibition Test; type: cell-based; settings: B16-F10, 72 h, 3 days culture, CellTiter-Glo (ATP)
Protocol: Mouse melanoma cells (B16F10) (Cell Resource Center for Biomedical Research, Institute of Development, Aging and Cancer, Tohoku University, Cat. No. TKG0348) were cultured in DMEM medium (REF. 11965-092 manufactured by GIBCO/Thermo Fisher Scientific Inc.) containing 10% FBS (REF. 10082-147 manufactured by GIBCO/Thermo Fisher Scientific Inc.), 1% penicillin/streptomycin/amphotericin B (REF. 15240-096 manufactured by GIBCO/Thermo Fisher Scientific Inc.), and 1 mM sodium pyruvate (REF. 11360-070 manufactured by GIBCO/Thermo Fisher Scientific Inc.) and inoculated at 0.5 to 2.0×10^3 cells/well to a 96-well plate. After overnight culture in a carbon dioxide incubator, culture was further performed for 3 days in a medium containing a solution of a test compound in DMSO (final DMSO concentration: 0.1%), and then, the amount of ATP was measured using CellTiter-Glo (manufactured by Promega Corp.).
The rate of inhibition of cell growth at each concentration was calculated from the test compound concentration and the amount of ATP, and the concentration of the test compound necessary for inhibiting 50% of cell growth (GI50 value) was calculated by using EXSUS (version 8.1.0, manufactured by CAC Croit Corp.).

[2] = tested on: Mouse melanoma cells (B16F10) subcutaneously transplanted; assay: In Vivo Tumor Growth Inhibition Test in Mouse Melanoma Cell (B16F10)-Subcutaneously Transplanted Mouse; parameters: species or system C57BL/6 mice; settings: day 7
Protocol: Mouse melanoma cells (B16F10) (Cell Resource Center for Biomedical Research, Institute of Development, Aging and Cancer, Tohoku University, Cat. No. TKG0348) were cultured in DMEM medium (REF. 11965-092 manufactured by GIBCO/Thermo Fisher Scientific Inc.) containing 10% FBS (REF. 10082-147 manufactured by GIBCO/Thermo Fisher Scientific Inc.), 1% penicillin/streptomycin/amphotericin B (REF. 15240-096 manufactured by GIBCO/Thermo Fisher Scientific Inc.), and 1 mM sodium pyruvate (REF. 11360-070 manufactured by GIBCO/Thermo Fisher Scientific Inc.) and adjusted to 1.0×10^7 cells/mL with PBS (REF. 10010-031 manufactured by GIBCO/Thermo Fisher Scientific Inc.). The prepared cell suspension was subcutaneously injected at 0.1 mL/mouse to the right abdomens of C57BL/6 mice (female, supplied by Japan SLC, Inc.). After rearing for a certain period, the long diameter (mm) and short diameter (mm) of tumor were measured with electronic calipers (manufactured by Mitsutoyo Corp., Cat. 500-712-10), and the tumor volume was calculated according to the following expression: Tumor volume (mm^3)=(Long diameter)×(Short diameter)×(Short diameter)×0.5
Individuals whose tumor volume was within the range of 50 to 200 mm^3 were selected and grouped such that the tumor volume was almost equivalent, then an anti-PD-1 antibody (manufactured by Bio X Cell) at 250 μg/mouse or Rat IgG2a (manufactured by Bio X Cell) at 250 μg/mouse was intraperitoneally administered, and further a test compound (25 mg/kg or 100 mg/kg) or only a solvent was orally administered to each group. The initial day of the start of administration was defined as day 0, and the anti-PD-1 antibody or Rat IgG2a were intraperitoneally administered on day 0 and day 3, and the test compound or only the solvent was orally administered once a day from day 0 to day 6. On day 7, the long diameter and short diameter of tumor were measured, and the tumor volume was calculated.

[3] = test compound oral (25 mg/kg or 100 mg/kg) once a day day 0 to 6 + Rat IgG2a 250 μg/mouse i.p. day 0 and 3, vs Rat IgG2a + solvent group
[4] = test compound oral (25 mg/kg or 100 mg/kg) once a day day 0 to 6 in combination with anti-PD-1 antibody 250 μg/mouse i.p. day 0 and 3

| Compound | GI50 [1] [µM] | Rate of inhibition of increase in tumor volume [2, 3] | Rate of inhibition of increase in tumor volume [2, 4] |
| --- | --- | --- | --- |
| CC1(C)c2[nH]nc(NC(=O)C3([Si](C)(C)C)CCC3)c2CN1C(=O)Nc1c(F)cccc1Cl [II-113, N-(2-Chloro-6-fluorophenyl)-6,6-dimethyl-3-[1-(trimethylsilyl)cyclobutanecarboxamido]-4,6-dihydropyrrolo[3,4-c]pyrazole-5(1H)-carboxamide] | ≤ 2 | – | – |
| Cc1cccc(Br)c1NC(=O)N1Cc2c(NC(=O)C3([Si](C)(C)C)CCC3)n[nH]c2C1(C)C [II-299, N-(2-Bromo-6-methylphenyl)-6,6-dimethyl-3-[1-(trimethylsilyl)cyclobutanecarboxamido]-4,6-dihydropyrrolo[3,4-c]pyrazole-5(1H)-carboxamide] | ≤ 2 | – | – |
| Cc1ccccc1NC(=O)N1Cc2c(NC(=O)C3([Si](C)(C)C)CCC3)n[nH]c2C1(C)C [II-21, 6,6-Dimethyl-N-(o-tolyl)-3-[1-(trimethylsilyl)cyclobutanecarboxamido]-4,6-dihydropyrrolo[3,4-c]pyrazole-5(1H)-carboxamide] | ≤ 2 | – | – |
| Cc1cccc(Cl)c1NC(=O)N1Cc2c(NC(=O)C3([Si](C)(C)C)CCC3)n[nH]c2C1(C)C [II-215, N-(2-Chloro-6-methylphenyl)-6,6-dimethyl-3-[1-(trimethylsilyl)cyclobutanecarboxamido]-4,6-dihydropyrrolo[3,4-c]pyrazole-5(1H)-carboxamide] | ≤ 2 | B (50% or more and less than 70%) | A (70% or more and less than 90%) |

Now from value to molecule, other results behind:

| GI50 [1] [µM] | Compound | Rate of inhibition of increase in tumor volume [2, 3] | Rate of inhibition of increase in tumor volume [2, 4] |
| --- | --- | --- | --- |
| ≤ 2 | Cc1ccc(C)c(NC(=O)N2Cc3c(NC(=O)C4([Si](C)(C)C)CCC4)n[nH]c3C2(C)C)c1 [II-379, N-(2,5-Dimethylphenyl)-6,6-dimethyl-3-[1-(trimethylsilyl)cyclobutanecarboxamido]-4,6-dihydropyrrolo[3,4-c]pyrazole-5(1H)-carboxamide] | B (50% or more and less than 70%) | A (70% or more and less than 90%) |
| ≤ 2 | CC1(C)c2[nH]nc(NC(=O)C3([Si](C)(C)C)CCC3)c2CN1C(=O)Nc1c(F)ccc2ccoc12 [II-1049, N-(6-Fluorobenzofuran-7-yl)-6,6-dimethyl-3-[1-(trimethylsilyl)cyclobutanecarboxamido]-4,6-dihydropyrrolo[3,4-c]pyrazole-5(1H)-carboxamide] | – | – |
| ≤ 2 | Cc1cc2ccc(F)c(NC(=O)N3Cc4c(NC(=O)C5([Si](C)(C)C)CCC5)n[nH]c4C3(C)C)c2o1 [II-1059, N-(6-Fluoro-2-methylbenzofuran-7-yl)-6,6-dimethyl-3-[1-(trimethylsilyl)cyclobutanecarboxamido]-4,6-dihydropyrrolo[3,4-c]pyrazole-5(1H)-carboxamide] | – | – |
| ≤ 2 | Cc1ccc(F)cc1NC(=O)N1Cc2c(NC(=O)C3([Si](C)(C)C)CCC3)n[nH]c2C1(C)C [II-361, N-(5-Fluoro-2-methylphenyl)-6,6-dimethyl-3-[1-(trimethylsilyl)cyclobutanecarboxamido]-4,6-dihydropyrrolo[3,4-c]pyrazole-5(1H)-carboxamide] | – | – |
| ≤ 2 | Cc1ccc(C)c(NC(=O)N2Cc3c(NC(=O)C4([Si](C)(C)C)CCC4)n[nH]c3C2(C)C)c1F [II-669, N-(2-Fluoro-3,6-dimethylphenyl)-6,6-dimethyl-3-[1-(trimethylsilyl)cyclobutanecarboxamido]-4,6-dihydropyrrolo[3,4-c]pyrazole-5(1H)-carboxamide] | – | – |
| ≤ 2 | CC1(C)c2[nH]nc(NC(=O)C3([Si](C)(C)C)CCC3)c2CN1C(=O)Nc1c(F)ccc2cc(Cl)oc12 [II-1063, N-(2-Chloro-6-fluorobenzofuran-7-yl)-6,6-dimethyl-3-[1-(trimethylsilyl)cyclobutanecarboxamido]-4,6-dihydropyrrolo[3,4-c]pyrazole-5(1H)-carboxamide] | D (10% or more and less than 30%) | B (50% or more and less than 70%) |
